According to US11028088B2, “Modulators of BTK proteolysis and methods of use” (Yale University, priority 2018, dated 2021):
Where two headings read alike, the source gives them in different places.

Assays:
HER3 = target: T1, HER3 (Homo sapiens, UniProt P21860); assay: HER3/ERBB3 degradation (western blot, OVCAR8 cells); type: cell-based
T1 construct: endogenous in cells; host or cells: OVCAR8
Description: FIG. 10 illustrates a Western blot of Compound 102-related degradation of ERBB3.
In various embodiments, treatment with PROTAC was performed in one of two ways: 1) For experiments involving >16 h exposure to compound, a 1000× stock was added to cells followed by gentle agitation; 2) For shorter treatments, a 2× stock was added to an equal volume of cells to ensure uniform drug exposure. For immortalized cell lines, 2×10^6 cells per treatment condition were collected and washed once with ice cold PBS (IX), followed by lysis in buffer containing 20 mM Tris [pH 8.0], 0.25% sodium deoxycholate, 1% Triton X-100, supplemented with protease (Roche) and phosphatase inhibitors (10 mM NaF, 2 mM Na3VO4, 10 mM β-glycerophosphate, 10 mM Na-pyrophosphate). Lysates were spun at 15,000×g for 10 min at 4° C. and supernatant was quantified for total protein content using the Pierce BCA Protein Assay (Thermo Fisher Scientific). 30 μg of protein was loaded onto 12% SDS-PAGE gels or 4-15% Mini-PROTEAN TGX precast gradient gels (Bio-Rad), transferred onto nitrocellulose membranes, and probed with the specified primary antibodies overnight with rocking at 4° C. in 1×TBS-T containing 5% non-fat milk.
(§1) Either anti-rabbit or anti-mouse HRP-conjugated secondary antibodies (Pierce) were incubated with the membranes for 1 h at room temperature at 1:10,000 dilutions in 5% non-fat milk in IX TBS-T. Imaging was performed using the ECL Prime chemiluminescent western blot detection reagents (Amersham) followed by visualization with the Bio-Rad ChemiDoc imaging instrument. All western blots were subsequently processed and quantified using the accompanying Bio-Rad Image Lab software. Primary antibodies used were: Anti-actin antibody (Cat. #MA 1-744) purchased from ThermoFisher Scientific; anti-BTK (Cat. #8547), anti-pBTK (Y223, Cat. #5082), anti-ITK (Cat. #2380), anti-GAPDH (Cat. #5179), anti-IKZF1 (Cat. #9034), and anti-IKZF3 (Cat. #15103) antibodies purchased from Cell Signaling Technology. All antibodies were used at 1:1,000 dilutions in 5% non-fat milk in 1×TBS-Tween (TBS-T) or Blotto blocker (Thermo Scientific) unless otherwise noted in supplier specifications.

BTK = BTK (Homo sapiens, UniProt Q06187); assay: BTK degradation in NAMALWA cells (immunoblot); type: cell-based; design: host or cells: NAMALWA; conditions: NAMALWA cells; for DC50: concentration needed to degrade 50% of the total pool of BTK; for Max: maximal BTK degradation
Description: NAMALWA and Jurkat cell lines were purchased from ATCC and cultured according to supplier guidelines at 37° C. […] Wild-type and C481S BTK XLA cell lines were cultured as previously described (39). Written, informed consent was obtained prior to the collection of cells from CLL patients using the IWCLL2008 criteria. Isolation of mononuclear cells from peripheral blood was prepared using density gradient centrifugation. B-cells were then negatively selected ([…] Technologies). […] They were maintained at 37° C. in 5% CO2.
Lysates were spun at 15,000×g for 10 min at 4° C. and supernatant was quantified for total protein content using the Pierce BCA Protein Assay (Thermo Fisher Scientific).
as §1, with “Primary antibodies used were: Anti-actin antibody (Cat. #MA 1-744) purchased from ThermoFisher Scientific; anti-BTK (Cat. #8547), anti-pBTK (Y223, Cat. #5082), anti-ITK (Cat. #2380), anti-GAPDH (Cat. #5179), anti-IKZF1 (Cat. #9034), and anti-IKZF3 (Cat. #15103) antibodies purchased from Cell Signaling Technology.” left out

T1 sequence (P21860 20-1342): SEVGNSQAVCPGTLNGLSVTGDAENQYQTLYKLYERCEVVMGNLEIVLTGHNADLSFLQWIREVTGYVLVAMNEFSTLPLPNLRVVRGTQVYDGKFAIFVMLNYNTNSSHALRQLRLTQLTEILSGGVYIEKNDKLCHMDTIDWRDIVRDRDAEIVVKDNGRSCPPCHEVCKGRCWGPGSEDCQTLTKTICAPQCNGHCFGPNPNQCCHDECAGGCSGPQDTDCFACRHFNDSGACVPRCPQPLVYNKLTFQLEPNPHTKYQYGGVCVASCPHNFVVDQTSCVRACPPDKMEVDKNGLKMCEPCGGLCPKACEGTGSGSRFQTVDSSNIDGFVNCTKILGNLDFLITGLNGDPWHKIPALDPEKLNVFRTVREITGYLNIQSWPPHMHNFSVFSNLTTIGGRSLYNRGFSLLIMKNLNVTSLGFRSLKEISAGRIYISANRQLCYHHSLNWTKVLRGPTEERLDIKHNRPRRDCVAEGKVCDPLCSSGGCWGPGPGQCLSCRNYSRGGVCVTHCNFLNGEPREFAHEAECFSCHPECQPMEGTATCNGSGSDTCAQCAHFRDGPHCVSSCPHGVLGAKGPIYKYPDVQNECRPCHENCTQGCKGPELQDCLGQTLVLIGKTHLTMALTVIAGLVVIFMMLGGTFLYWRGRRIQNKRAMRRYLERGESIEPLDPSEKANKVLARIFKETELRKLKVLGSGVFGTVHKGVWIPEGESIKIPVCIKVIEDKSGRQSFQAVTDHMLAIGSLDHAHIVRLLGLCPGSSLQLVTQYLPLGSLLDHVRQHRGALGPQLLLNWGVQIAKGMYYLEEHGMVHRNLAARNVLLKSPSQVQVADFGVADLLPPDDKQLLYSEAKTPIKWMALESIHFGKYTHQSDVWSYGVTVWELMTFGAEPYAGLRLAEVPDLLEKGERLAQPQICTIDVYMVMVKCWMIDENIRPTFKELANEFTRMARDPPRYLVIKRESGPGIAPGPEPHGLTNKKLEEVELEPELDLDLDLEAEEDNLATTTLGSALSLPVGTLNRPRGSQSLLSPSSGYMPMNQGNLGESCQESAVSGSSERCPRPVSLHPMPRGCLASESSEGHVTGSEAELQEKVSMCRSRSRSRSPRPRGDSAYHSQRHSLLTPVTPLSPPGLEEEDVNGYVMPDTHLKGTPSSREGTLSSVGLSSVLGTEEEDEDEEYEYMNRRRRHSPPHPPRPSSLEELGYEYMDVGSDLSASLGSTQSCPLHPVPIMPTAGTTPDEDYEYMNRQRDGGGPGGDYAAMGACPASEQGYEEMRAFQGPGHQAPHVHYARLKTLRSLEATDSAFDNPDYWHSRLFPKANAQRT
Sequence of BTK (Q06187 whole entry): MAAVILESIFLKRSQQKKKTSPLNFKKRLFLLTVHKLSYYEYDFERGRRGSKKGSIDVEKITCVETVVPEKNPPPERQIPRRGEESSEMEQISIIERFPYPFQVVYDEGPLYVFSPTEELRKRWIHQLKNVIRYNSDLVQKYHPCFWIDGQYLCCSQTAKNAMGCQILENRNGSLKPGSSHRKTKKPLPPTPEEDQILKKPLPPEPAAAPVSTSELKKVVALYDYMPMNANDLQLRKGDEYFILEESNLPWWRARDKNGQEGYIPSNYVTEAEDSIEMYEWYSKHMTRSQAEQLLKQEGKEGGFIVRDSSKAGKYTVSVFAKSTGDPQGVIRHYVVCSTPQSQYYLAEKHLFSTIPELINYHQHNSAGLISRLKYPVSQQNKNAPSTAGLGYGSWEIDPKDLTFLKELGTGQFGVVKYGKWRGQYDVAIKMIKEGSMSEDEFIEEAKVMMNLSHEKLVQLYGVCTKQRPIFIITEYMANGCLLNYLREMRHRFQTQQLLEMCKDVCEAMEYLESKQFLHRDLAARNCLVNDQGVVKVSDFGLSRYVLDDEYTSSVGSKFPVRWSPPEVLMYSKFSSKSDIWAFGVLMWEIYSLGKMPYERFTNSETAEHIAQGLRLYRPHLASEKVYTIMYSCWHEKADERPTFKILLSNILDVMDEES

SMILES | HER3 Degradation (HER3) | DC50 (BTK) | DC50 (BTK; read-out: DC50) [µM] | Max (BTK; at 1.0 μM) [%] | other results
Cc1ncsc1-c1ccc(CNC(=O)[C@@H]2C[C@@H](O)CN2C(=O)[C@@H](NC(=O)COCCOCCOCCCCCCN2CCC(n3nc(-c4ccc(Oc5ccccc5)cc4)c4c(N)ncnc43)CC2)C(C)(C)C)cc1 [Compound 110, (2S,4R)-1-((S)-19-(4-(4-amino-3-(4-phenoxyphenyl)-1H-pyrazolo[3,4-d]pyrimidin-1-yl)piperidin-1-yl)-2,2-dimethyl-5-oxo-7,10,13-trioxa-4-azanonadecanecarbonyl)-4-hydroxy-N-(4-(4-methylthiazol-5-yl)benzyl)pyrrolidine-2-carboxamide] | No | No Degradation | – | – | –
Cc1ncsc1-c1ccc(CNC(=O)[C@@H]2C[C@@H](O)CN2C(=O)[C@@H](NC(=O)COCCOCCOCCOCCCCN2CCC(n3nc(-c4ccc(Oc5ccccc5)cc4)c4c(N)ncnc43)CC2)C(C)(C)C)cc1 [Compound 113, (2S,4R)-1-((S)-19-(4-(4-amino-3-(4-phenoxyphenyl)-1H-pyrazolo[3,4-d]pyrimidin-1-yl)piperidin-1-yl)-2-tert-butyl-4-oxo-6,9,12,15-tetraoxa-3-azanonadecane)-4-hydroxy-N-(4-(4-methylthiazol-5-yl)benzyl)pyrrolidine-2-carboxamide] | No | – | 0.124 | 60 | –
Cc1ncsc1-c1ccc(CNC(=O)[C@@H]2C[C@@H](O)CN2C(=O)[C@@H](NC(=O)CCCCCOCCOCCCCCCN2CCC(n3nc(-c4ccc(Oc5ccccc5)cc4)c4c(N)ncnc43)CC2)C(C)(C)C)cc1 [Compound 112, (2S,4R)-1-((S)-2-(6-(2-(6-(4-(4-amino-3-(4-phenoxyphenyl)-1H-pyrazolo[3,4-d]pyrimidin-1-yl)piperidin-1-yl)hexyloxy)ethoxy)hexanamido)-3,3-dimethylbutanoyl)-4-hydroxy-N-(4-(4-methylthiazol-5-yl)benzyl)pyrrolidine-2-carboxamide] | No | No Degradation | – | – | –
Nc1ncnc2c1c(-c1ccc(Oc3ccccc3)cc1)nn2C1CCN(CCCOCCCOCCC(=O)Nc2cccc3c2C(=O)N(C2CCC(=O)NC2=O)C3=O)CC1 (stereo not drawn) [Compound 103, 3-(3-(3-(4-(4-amino-3-(4-phenoxyphenyl)-1H-pyrazolo[3,4-d]pyrimidin-1-yl)piperidin-1-yl)propoxy)propoxy)-N-(2-(2,6-dioxopiperidin-3-yl)-1,3-dioxoisoindolin-4-yl)propanamide] | No | – | 0.0683 | 95 | –
C=CC(=O)Nc1cc(-c2nn(C3CCN(CCCOCCCOCCC(=O)Nc4cccc5c4C(=O)N(C4CCC(=O)NC4=O)C5=O)CC3)c3ncnc(N)c23)ccc1Oc1ccccc1 (stereo not drawn) [Compound 121, N-(5-(4-amino-1-(1-(3-(3-(3-(2-(2,6-dioxopiperidin-3-yl)-1,3-dioxoisoindolin-4-ylamino)-3-oxopropoxy)propoxy)propyl)piperidin-4-yl)-1H-pyrazolo[3,4-d]pyrimidin-3-yl)-2-phenoxyphenyl)acrylamide] | No | No Degradation | – | – | –
Cc1ncsc1-c1ccc(CNC(=O)[C@@H]2C[C@@H](O)CN2C(=O)[C@@H](NC(=O)CCCCCOCCCCCOCCCCCCN2CCC(n3nc(-c4ccc(Oc5ccccc5)cc4)c4c(N)ncnc43)CC2)C(C)(C)C)cc1 [Compound 117, (2S,4R)-1-((S)-2-(6-(5-(6-(4-(4-amino-3-(4-phenoxyphenyl)-1H-pyrazolo[3,4-d]pyrimidin-1-yl)piperidin-1-yl)hexyloxy)pentyloxy)hexanamido)-3,3-dimethylbutanoyl)-4-hydroxy-N-(4-(4-methylthiazol-5-yl)benzyl)pyrrolidine-2-carboxamide] | No | No Degradation | – | – | –
Nc1ncnc2c1c(-c1ccc(Oc3ccccc3)cc1)nn2C1CCN(CCCCOCCCCOCC(=O)Nc2ccc3c(c2)C(=O)N(C2CCC(=O)NC2=O)C3=O)CC1 (stereo not drawn) [Compound 105, 2-[4-[4-[4-[4-amino-3-(4-phenoxyphenyl)pyrazolo[3,4-d]pyrimidin-1-yl]-1-piperidyl]butoxy]butoxy]-N-[2-(2,6-dioxo-3-piperidyl)-1,3-dioxo-isoindolin-5-yl]acetamide] | No | – | 0.0116 | – | Max (BTK; at 250 nM): >99%; hook-effect (increase in BTK levels at high PROTAC concentration) (BTK; up to 2.5 μM, 24 h): (No
Nc1ncnc2c1c(-c1ccc(Oc3ccccc3)cc1)nn2C1CCN(CCCCCCOCCOCC(=O)Nc2cccc3c2C(=O)N(C2CCC(=O)NC2=O)C3=O)CC1 (stereo not drawn) [Compound 104, 2-[2-[6-[4-[4-amino-3-(4-phenoxyphenyl)pyrazolo[3,4-d]pyrimidin-1-yl]-1-piperidyl]hexoxy]ethoxy]-N-[2-(2,6-dioxo-3-piperidyl)-1,3-dioxo-isoindolin-4-yl]acetamide] | No | – | 0.0806 | 96 | degradation of BTK at 1.0 μM (BTK; 1.0 μM): nearly complete degradation
C=CC(=O)Nc1cc(-c2nn(C3CCN(CCCCOCCCCOCC(=O)Nc4cccc5c4C(=O)N(C4CCC(=O)NC4=O)C5=O)CC3)c3ncnc(N)c23)ccc1Oc1ccccc1 (stereo not drawn) [Compound 122, N-(5-(4-amino-1-(1-(4-(4-(2-(2-(2,6-dioxopiperidin-3-yl)-1,3-dioxoisoindolin-4-ylamino)-2-oxoethoxy)butoxy)butyl)piperidin-4-yl)-1H-pyrazolo[3,4-d]pyrimidin-3-yl)-2-phenoxyphenyl)acrylamide] | No | No Degradation | – | – | –
Nc1ncnc2c1c(-c1ccc(Oc3ccccc3)cc1)nn2C1CCN(CCOCCOCC(=O)Nc2cccc3c2C(=O)N(C2CCC(=O)NC2=O)C3=O)CC1 (stereo not drawn) [Compound 101, 2-(2-(2-(4-(4-amino-3-(4-phenoxyphenyl)-1H-pyrazolo[3,4-d]pyrimidin-1-yl)piperidin-1-yl)ethoxy)ethoxy)-N-(2-(2,6-dioxopiperidin-3-yl)-1,3-dioxoisoindolin-4-yl)acetamide] | No | No Degradation | – | – | ability to degrade BTK (BTK; dose escalation, 24 h): inability to degrade BTK
Cc1ncsc1-c1ccc(CNC(=O)[C@@H]2C[C@@H](O)CN2C(=O)[C@@H](NC(=O)COCCOCCOCCOCCN2CCC(n3nc(-c4ccc(Oc5ccccc5)cc4)c4c(N)ncnc43)CC2)C(C)(C)C)cc1 [Compound 109, (2S,4R)-1-((S)-17-(4-(4-amino-3-(4-phenoxyphenyl)-1H-pyrazolo[3,4-d]pyrimidin-1-yl)piperidin-1-yl)-2-tert-butyl-4-oxo-6,9,12,15-tetraoxa-3-azaheptadecane)-4-hydroxy-N-(4-(4-methylthiazol-5-yl)benzyl)pyrrolidine-2-carboxamide] | No | – | 0.278 | – | Max (BTK; at 2.5 μM): 73%
Cc1ncsc1-c1ccc(CNC(=O)[C@@H]2C[C@@H](O)CN2C(=O)[C@@H](NC(=O)COCCOCCOCCOCCOCCCCCCN2CCC(n3nc(-c4ccc(Oc5ccccc5)cc4)c4c(N)ncnc43)CC2)C(C)(C)C)cc1 [Compound 118, (2S,4R)-1-((S)-25-(4-(4-amino-3-(4-phenoxyphenyl)-1H-pyrazolo[3,4-d]pyrimidin-1-yl)piperidin-1-yl)-2,2-dimethyl-5-oxo-7,10,13,16,19-pentaoxa-4-azapentacosanecarbonyl)-4-hydroxy-N-(4-(4-methylthiazol-5-yl)benzyl)pyrrolidine-2-carboxamide] | No | – | 0.231 | 40 | –
